Test systems include DU-145 prostate; EKVX NSCLC; HCC-2998 colon; HCT-15 colon; HL-60(TB) leukemia; M14 melanoma; OVCAR-3 ovarian; PC-3 prostate; SNB-75 CNS; UO-31 renal.
Holding throughout (experiment): growth of human tumour cells (NCI), 48 h

Several values for one entry are separate records, joined by “and”; a condition that tells them apart may be missing. Equal entries are not always repeated.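 A five-concentration, 48-hour dose response in 96-well plates underlies each endpoint, interpolated linearly between surrounding concentrations. Abbreviation: GI50, concentration required for 50% inhibition of growth. Definition used: TGI = concentration required for complete inhibition of growth.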

With `CCc1ccc2c(c1)C(=O)c1c-2n(CCCN=[N+]=[N-])c(=O)c2cc(OC)c(OC)cc12`, the GI50 in the assay on DU-145 prostate, in the assay with EKVX NSCLC, in the assay with HCC-2998 colon, in the assay with HCT-15 colon, in the assay with HL-60(TB) leukemia and in the assay on M14 melanoma was greater than 100 µM in each case. The GI50 in the assay on OVCAR-3 ovarian, with PC-3 prostate, in the assay on SNB-75 CNS and in the assay on UO-31 renal was greater than 100 µM each time. In addition, the TGI with DU-145 prostate, in the assay on EKVX NSCLC, in the assay with HCC-2998 colon, in the assay on HCT-15 colon, in the assay with HL-60(TB) leukemia and in the assay with M14 melanoma was greater than 100 µM each time. Besides, the TGI with OVCAR-3 ovarian, in the assay with PC-3 prostate, in the assay with SNB-75 CNS and in the assay on UO-31 renal was greater than 100 µM each time.
In the case of `N#CSCc1ccc(Cl)c(CSC#N)c1`, the GI50 in the assay on DU-145 prostate is 0.121 µM; with EKVX NSCLC, 20.7 µM; in the assay with HCC-2998 colon it was 6.61 µM; with HCT-15 colon, 0.143 µM; in the assay on HL-60(TB) leukemia it was 0.0468 µM; in the assay with M14 melanoma, 0.0759 µM. For the same compound, the GI50 in the assay with OVCAR-3 ovarian was 0.165 µM; in the assay with PC-3 prostate, 1.35 µM; in the assay with SNB-75 CNS, 0.601 µM; with UO-31 renal it was 0.154 µM. Besides, the TGI with DU-145 prostate was 12.7 µM; in the assay with EKVX NSCLC, greater than 80.3 µM; in the assay with HCC-2998 colon it was 34.5 µM; with HCT-15 colon, 25.1 µM; in the assay with HL-60(TB) leukemia, 2.48 µM; in the assay on M14 melanoma it was 14.8 µM. Besides, the TGI in the assay with OVCAR-3 ovarian stood at 18.1 µM; in the assay on PC-3 prostate, 27.1 µM; with SNB-75 CNS, 59.9 µM; in the assay on UO-31 renal it was 12.8 µM.
On to `Cc1nn(-c2ccc(Cl)cc2)c2nc3c(nc12)C(=O)C(=O)c1ccccc1-3`, for which the GI50 in the assay on DU-145 prostate was 1.98 µM; in the assay on EKVX NSCLC it was 7.36 µM; in the assay with HCC-2998 colon, 1.74 µM; with HCT-15 colon it was 3.4 µM; in the assay on HL-60(TB) leukemia, 4.32 µM; in the assay with M14 melanoma, 1.89 µM. For the same compound, the GI50 with OVCAR-3 ovarian is 3.48 µM; with PC-3 prostate it was 2.31 µM; in the assay on SNB-75 CNS it was 1.66 µM; in the assay with UO-31 renal, 1.82 µM. Moreover, the TGI in the assay on DU-145 prostate was 3.57 µM; with EKVX NSCLC it was greater than 100 µM; with HCC-2998 colon it was 3.79 µM; with HCT-15 colon, 16.8 µM; in the assay with HL-60(TB) leukemia it was greater than 100 µM; in the assay with M14 melanoma, 4.1 µM. Moreover, the TGI in the assay with OVCAR-3 ovarian is greater than 100 µM; in the assay on PC-3 prostate, greater than 100 µM; with SNB-75 CNS, 4.3 µM; in the assay on UO-31 renal, 7.14 µM.
With `C=C1CC[C@@H]2[C@](C)(COC(C)=O)[C@H](OC(C)=O)CC[C@@]2(C)[C@@H]1CC(Nc1ccc(S(=O)(=O)Nc2ccc(Cl)nn2)cc1)C1=CCOC1=O` (stereo not given in full), the GI50 with DU-145 prostate is 1.7 µM; in the assay with EKVX NSCLC it was 4.53 µM; in the assay on HCC-2998 colon, 1.84 µM; in the assay with HCT-15 colon, 0.882 µM; in the assay with HL-60(TB) leukemia it was 1.32 µM; with M14 melanoma, 1.45 µM. Further, the GI50 was 1.22 µM in the assay with OVCAR-3 ovarian, 2.24 µM in the assay with PC-3 prostate, 1.44 µM in the assay on SNB-75 CNS and 1.45 µM with UO-31 renal. For the same compound, the TGI worked out at 3.45 µM in the assay on DU-145 prostate; 17 µM in the assay on EKVX NSCLC; 3.86 µM in the assay on HCC-2998 colon; 2.3 µM in the assay with HCT-15 colon; 4.44 µM with HL-60(TB) leukemia; 3.41 µM in the assay on M14 melanoma. Further, the TGI is 2.51 µM in the assay with OVCAR-3 ovarian, 5.25 µM with PC-3 prostate, 5.9 µM with SNB-75 CNS and 2.88 µM in the assay with UO-31 renal.
In the case of `CC(=O)[O][Sn]([CH2]c1ccccc1)([CH2]c1ccccc1)[CH2]c1ccccc1`, the GI50 in the assay with DU-145 prostate was greater than 10 µM; in the assay on EKVX NSCLC it was greater than 5.53 µM; in the assay on HCC-2998 colon, greater than 6.73 µM; in the assay on HCT-15 colon, 4.25 µM; in the assay with HL-60(TB) leukemia, greater than 5.79 µM; with M14 melanoma it was greater than 8.37 µM. The GI50 is greater than 6.14 µM with OVCAR-3 ovarian, greater than 7.52 µM in the assay with PC-3 prostate, greater than 4.28 µM with SNB-75 CNS and greater than 8.79 µM in the assay with UO-31 renal. In addition, the TGI was greater than 10 µM with DU-145 prostate; greater than 6.88 µM in the assay on EKVX NSCLC; greater than 10 µM in the assay on HCC-2998 colon; greater than 4.64 µM with HCT-15 colon; greater than 7.61 µM in the assay on HL-60(TB) leukemia; greater than 10 µM with M14 melanoma. The TGI is greater than 10 µM in the assay on OVCAR-3 ovarian, greater than 10 µM with PC-3 prostate, greater than 5.68 µM in the assay on SNB-75 CNS and greater than 10 µM with UO-31 renal.
Turning to `Cc1nn(C)c(COc2ccc(N3CCN(S(=O)(=O)N(C)C)CC3)cc2)c1-c1cccc2c(CCCOc3cccc4ccccc34)c(C(=O)O)n(CCN3CCOCC3)c12`, the GI50 in the assay with DU-145 prostate was 5.03 µM; in the assay on EKVX NSCLC, 3.59 µM; with HCC-2998 colon, 2.81 µM; in the assay with HCT-15 colon it was 7.62 µM; with HL-60(TB) leukemia it was 2.45 µM; in the assay with M14 melanoma it was 2.28 µM. Further, the GI50 in the assay on OVCAR-3 ovarian was 2.72 µM; in the assay on PC-3 prostate it was 3.27 µM; in the assay with SNB-75 CNS, 2.11 µM; in the assay with UO-31 renal it was 6.13 µM. For the same compound, the TGI was determined as 16.7 µM in the assay on DU-145 prostate; 15 µM in the assay on EKVX NSCLC; 9.34 µM in the assay with HCC-2998 colon; 22.9 µM with HCT-15 colon; 6.07 µM in the assay with HL-60(TB) leukemia; 5.32 µM in the assay on M14 melanoma. The TGI was determined as 8.57 µM in the assay on OVCAR-3 ovarian, 10.7 µM in the assay with PC-3 prostate, 10.5 µM in the assay with SNB-75 CNS and 20.3 µM with UO-31 renal.
With `CC1=C(C(=O)N(C)c2ccc(Cl)c(C(=O)OC(C)C)c2)SCCO1`, the TGI with DU-145 prostate, in the assay on EKVX NSCLC, in the assay on HCC-2998 colon, with HCT-15 colon, with HL-60(TB) leukemia and in the assay on M14 melanoma was greater than 100 µM throughout. Also, the TGI with OVCAR-3 ovarian was greater than 100 µM; with PC-3 prostate it was greater than 100 µM; in the assay on SNB-75 CNS it was 90.8 µM; with UO-31 renal, greater than 100 µM.
For `NC(=O)Nc1cc(-c2cccc(F)c2)sc1C(=O)N[C@H]1CCCNC1`, the GI50 in the assay on DU-145 prostate is 0.21 µM and 0.435 µM; in the assay with EKVX NSCLC, 0.576 µM and 1 µM; in the assay with HCC-2998 colon it was 0.117 µM and 0.273 µM; in the assay on HCT-15 colon, 1.3 µM and 1.96 µM; in the assay on HL-60(TB) leukemia, 0.101 µM and 0.291 µM; with M14 melanoma, 0.031 µM and 0.102 µM. For the same compound, the GI50 with OVCAR-3 ovarian is 0.168 µM and 0.55 µM; in the assay with PC-3 prostate, 0.502 µM and 0.521 µM; with SNB-75 CNS, 0.0316 µM and 0.102 µM; in the assay on UO-31 renal it was 0.213 µM and 0.304 µM. Further, the TGI in the assay on DU-145 prostate was 2.07 µM and 3.81 µM; with EKVX NSCLC, > 5.79 µM and 8.28 µM; with HCC-2998 colon, 1.4 µM and 2.64 µM; with HCT-15 colon, > 7.18 µM and 10.7 µM; in the assay on HL-60(TB) leukemia it was 3.88 µM and 1.28 µM; in the assay with M14 melanoma, 0.476 µM and 0.525 µM. Further, the TGI was 4.56 µM and 5.17 µM in the assay on OVCAR-3 ovarian; > 10 µM and 17.5 µM with PC-3 prostate; 1.01 µM and 1.07 µM with SNB-75 CNS; 1.79 µM and 1.29 µM in the assay on UO-31 renal.
